This is an account of results in patent US20230143612A1 (Arbutus Biopharma Corporation, priority 2020, published 2023).

Each structure is given as a SMILES string.

Chain of PD-L1 His protein / PD-1 Fc protein (Q9NZQ7 19-238 limits assumed): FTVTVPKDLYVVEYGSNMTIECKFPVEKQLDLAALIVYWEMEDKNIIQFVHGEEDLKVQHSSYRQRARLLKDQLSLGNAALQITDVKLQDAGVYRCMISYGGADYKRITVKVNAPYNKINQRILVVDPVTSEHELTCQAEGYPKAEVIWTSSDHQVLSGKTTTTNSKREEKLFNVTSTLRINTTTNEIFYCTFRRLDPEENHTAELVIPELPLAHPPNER

The experiment has as its target PD-L1 His protein / PD-1 Fc protein (Homo sapiens, UniProt Q9NZQ7). Nature of the experiment: HTRF Assay (PD-1/PD-L1 interaction). Particulars: PD-L1 His 6 nM, PD-1 Fc 6 nM. Type of experiment: binding. A digest of the protocol:
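HTRF: PD-L1 His (6 nM final), compound (3-fold dilutions, 20 μM to 0.001 μM final) and PD-1 Fc (6 nM final) preincubated 15 min at room temperature. Anti-human IgG-XL665 and anti-6HIS Tb cryptate (mixed at 6.7 nM and 0.35 nM) then added for 1 h at room temperature before reading.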
One may read the IC50 as the concentration needed to halve the response being measured. Low values mean greater potency in that assay, high ones weaker potency in that assay. Turning to `Cc1c(COc2cc(OCc3cncc(C#N)c3)c(CN3CCCC[C@H]3C(=O)O)cc2Cl)cccc1-c1cccc(-c2ccn3c(=O)c(CN4CCCC[C@H]4C(=O)O)cnc3c2)c1C` [Example 11, (S)-1-((8-(3′-((4-(((S)-2-Carboxypiperidin-1-yl)methyl)-2-chloro-5-((5-cyanopyridin-3-yl)methoxy)phenoxy)methyl)-2,2′-dimethyl-[1,1′-biphenyl]-3-yl)-4-oxo-4H-pyrido[1,2-a]pyrimidin-3-yl)methyl)piperidine-2-carboxylic acid], the IC50 stood at 0.6 nM. Consider `COc1nc(-c2cccc(-c3cccc(-c4ccn5c(=O)c(CN6CC(C(=O)O)C6)cnc5c4)c3Cl)c2Cl)ccc1CNCCO` [Example 188, 1-((8-(2,2′-Dichloro-3′-(5-(((2-hydroxyethyl)amino)methyl)-6-methoxypyridin-2-yl)-[1,1′-biphenyl]-3-yl)-4-oxo-4H-pyrido[1,2-a]pyrimidin-3-yl)methyl)azetidine-3-carboxylic acid], for which half-maximal inhibition (IC50) required 0.1 nM. With `COc1nc(-c2cccc(-c3cccc(-c4ccn5c(=O)c(CN6CC7(CNC(=O)C7)C6)cnc5c4)c3Cl)c2Cl)ccc1CN1CC2(CNC(=O)C2)C1` [Example 70, 8-(2,2′-Dichloro-3′-(6-methoxy-5-((7-oxo-2,6-diazaspiro[3.4]octan-2-yl)methyl)pyridin-2-yl)-[1,1′-biphenyl]-3-yl)-3-((7-oxo-2,6-diazaspiro[3.4]octan-2-yl)methyl)-4H-pyrido[1,2-a]pyrimidin-4-one] the figure was 7.1 nM; with `COc1nc(-c2cccc(-c3cccc(-c4ccn5c(=O)c(CN[C@H]6C[C@](C)(O)C6)c(C)nc5c4)c3Cl)c2Cl)ccc1CN[C@H]1C[C@](C)(O)C1` [Example 205, 8-(2,2′-Dichloro-3′-(5-((((1r,3r)-3-hydroxy-3-methylcyclobutyl)amino)methyl)-6-methoxypyridin-2-yl)-[1,1′-biphenyl]-3-yl)-3-((((1r,3r)-3-hydroxy-3-methylcyclobutyl)amino)methyl)-2-methyl-4H-pyrido[1,2-a]pyrimidin-4-one], 0.9 nM. The same measure for `COc1nc(-c2cccc(-c3cccc(-c4ccc5c(CNC6CCN(C(C)=O)CC6)cn(C)c5n4)c3Cl)c2Cl)ccc1CNC[C@@H]1CCC(=O)N1` [Example 415, (5S)-5-[[[6-[3-[3-[3-[[(1-Acetyl-4-piperidyl)amino]methyl]-1-methyl-pyrrolo[2,3-b]pyridin-6-yl]-2-chloro-phenyl]-2-chloro-phenyl]-2-methoxy-3-pyridyl]methylamino]methyl]pyrrolidin-2-one]: 220 nM.

As for `Cc1nc(-c2cccc(-c3cccc(-c4ccn5c(=O)c(CNC[C@@H]6CCC(=O)N6)cnc5c4)c3C)c2Cl)ccc1CNC[C@@H]1CCC(=O)N1` [Example 79, 8-(2′-Chloro-2-methyl-3′-(6-methyl-5-(((((S)-5-oxopyrrolidin-2-yl)methyl)amino)methyl)pyridin-2-yl)-[1,1′-biphenyl]-3-yl)-3-(((((S)-5-oxopyrrolidin-2-yl)methyl)amino)methyl)-4H-pyrido[1,2-a]pyrimidin-4-one], the IC50 is 2.8 nM. The same measure for `COc1nc(-c2cccc(-c3cccc(-c4cc5c(=O)n(C)c(CNC[C@@H]6CCC(=O)N6)nn5c4)c3Cl)c2Cl)ccc1CNC[C@@H]1CCC(=O)N1` [Example 331, 6-(2,2′-Dichloro-3′-(6-methoxy-5-(((((S)-5-oxopyrrolidin-2-yl)methyl)amino)methyl)pyridin-2-yl)-[1,1′-biphenyl]-3-yl)-3-methyl-2-(((((S)-5-oxopyrrolidin-2-yl)methyl)amino)methyl)pyrrolo[2,1-f][1,2,4]triazin-4(3H)-one]: 310 nM; for `COc1cc(-c2cccc(-c3cccc(-c4ccn5c(=O)c(CNC[C@@H]6CCC(=O)N6)cnc5c4)c3Cl)c2Cl)cc(F)c1CNC[C@@H]1CCC(=O)N1` [Example 104, 8-(2,2′-Dichloro-3″-fluoro-5″-methoxy-4″-(((((S)-5-oxopyrrolidin-2-yl)methyl)amino)methyl)-[1,1′:3′,1″-terphenyl]-3-yl)-3-(((((S)-5-oxopyrrolidin-2-yl)methyl)amino)methyl)-4H-pyrido[1,2-a]pyrimidin-4-one]: 8.8 nM.
